{"source": "patent US12012394B2", "about": "“Alpha-synuclein ligands” (Washington University, priority 2018, dated 2024)", "key": {"Banner seeded fibrils": {"target": "Banner seeded fibrils (Homo sapiens (Human), UniProt P37840)", "assay": "Saturation binding of [125I]TZ61-84 to Banner seeded fibrils", "details": "100 nM Banner seeded fibrils, saturation binding", "experimental": "The binding efficacy (Kd) of TZ-61-84 was determined using a modified protocol. Specifically, saturation plots of radiolabeled [^125I]TZ61-84 were obtained measuring total and nonspecific binding of TZ61-84 to 100 nM Banner seeded fibrils. The results are depicted in FIG. 15B-15D and that TZ61-84 has a high binding affinity to α-synuclein (Kd<1 nM)."}, "PD-seeded fibrils": {"target": "PD-seeded fibrils (Homo sapiens (Human), UniProt P37840)", "assay": "Heterologous competition binding assay with [18F]TZ61-44 as radioligand", "details": "radioligand [18F]TZ61-44, 25 nM PD-seeded fibrils", "experimental": "The equilibrium inhibitor constant (Ki) of a series of compounds was measured using heterologous radioactive binding assays with [^18F]TZ61-44, […], or [^125I]TZ61-84 as the screening radioligands. EC50 values for each compound were determined by fitting the data to the equation Y=Bottom+(Top−Bottom)/(1+(X−Log EC50)^−Hillcoefficient) using nonlinear regression by Kaleidagraph software, where Top and Bottom are the Y values for the top and bottom plateaus of the binding curve. The Ki values were derived from the EC50 values using the Cheng-Prusoff equation: Ki=EC50/(1+[radioligand]/Kd). FIGS. 5A-5E show the inhibition curves for TG-1-90B, TZ55-101, TZ61-84, TZ55-107, and TZ55-81 using [^18F]TZ61-44 as the radioligand. FIG. 11B-C show the inhibition curves for two separate experiments on PD fibrils for TZ55-101 using […] as the radioligand. FIGS. 12A-12F show the inhibition curves for TZ66-3, TZ64-015, TZ64-016, TZ64-018, TZ64-019, and TZ64-020 using [^18F]TZ61-44 as the radioligand. FIGS. 13A-13D show the inhibition curves for TZ66-9, TZ66-8, and TZ55-107 using [^18F]TZ61-44 as the radioligand."}, "Aβ fibrils": {"target": "Aβ fibrils (Homo sapiens (Human), UniProt P05067)", "sequence (P05067 672-713)": "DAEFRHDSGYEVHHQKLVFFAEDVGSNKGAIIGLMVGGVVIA", "assay": "Homologous competition radioligand binding assay, Aβ fibrils", "details": "150 nM Aβ fibrils", "experimental": "Synthetic Aβ1-42 peptide (1 mg) (Bachem, Torrance, CA) was first dissolved in 50 μl DMSO. An additional 925 μl of mQ-H2O was added. Finally, 25 μl 1M Tris-HCl pH 7.6 was added to bring the final peptide concentration to 222 μM (1 mg/ml). The dissolved peptide was incubated for 30 h at 37° C. with shaking at 1000 rpm in an Eppendorf Thermomixer. Fibril formation was confirmed by ThioT fluorescence. To determine the concentration of fibrils, the fibril reaction mix was centrifuged at 15,000×g for 15 min to separate fibrils from monomer. The concentration of Aβ monomer in the supernatant was determined in a BCA protein assay using a BSA standard curve that contained DMSO at a percentage equivalent to the samples. […]\nThese direct binding assays used a fixed concentration of either fibrils or PD/AD tissue and the radioligand (e.g., [^18F]28) and varying concentration ranges of corresponding homologous non-radiolabeled standard reference compound. […] Reactions were incubated at 37° C. for 1 h before quantifying bound radioligand. […] Filters containing the bound ligand were mixed with 150 μL of Optiphase Supermix scintillation cocktail (PerkinElmer) and counted immediately. […] The dissociation constant (Kd) and the maximal number of binding sites (Bmax) values were determined by fitting the data to the equation. […]"}}, "note": "Several values for one entry are separate records, joined by “and”; a condition that tells them apart may be missing. Identical values can stand only once."}
{"molecule": "COc1ccc2nc(-c3csc(C=O)c3)ccc2c1", "note": "[TZ55-81]", "values": [{"measurement": "Kd", "setting": "Banner seeded fibrils", "value": "0.34 nM and 0.5 nM"}, {"measurement": "EC50", "setting": "PD-seeded fibrils", "value": 46, "unit": "nM"}, {"measurement": "Ki", "setting": "PD-seeded fibrils; Cheng-Prusoff from EC50", "value": 43, "unit": "nM"}, {"measurement": "Kd", "setting": "Aβ fibrils", "value": 12, "unit": "nM"}]}
